According to patent US20260176320A1, “MODULATORS OF G-PROTEIN COUPLED RECEPTORS” (priority 2018, published 2026):
Read-outs that look alike come from different tables or passages of the source.

Key:
GLP-1R = GLP-1R (Homo sapiens, UniProt P43220); experiment: HitHunter cAMP assay (GLP-1R); assay type: cell-based; conditions: cAMP; for Emax: read-out: (Emax) GLP-1R
Summary of the method: (§1)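 Suspension cells expressing each receptor (10,000 per well) in HBSS with 10 mM HEPES, 625 μM IBMX and 0.2% BSA were treated with a 22-point 2-fold agonist series in duplicate for 30 minutes at room temperature. cAMP was detected by antibody immunocompetition with luminescence read after overnight incubation.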

GIP-R = biological target: T1, GIP-R (Homo sapiens, UniProt P48546); experiment: HitHunter cAMP assay (GIP-R); assay type: cell-based; conditions: cAMP; for Emax: read-out: (Emax) GIP-R
T1 sequence (P48546 22-466): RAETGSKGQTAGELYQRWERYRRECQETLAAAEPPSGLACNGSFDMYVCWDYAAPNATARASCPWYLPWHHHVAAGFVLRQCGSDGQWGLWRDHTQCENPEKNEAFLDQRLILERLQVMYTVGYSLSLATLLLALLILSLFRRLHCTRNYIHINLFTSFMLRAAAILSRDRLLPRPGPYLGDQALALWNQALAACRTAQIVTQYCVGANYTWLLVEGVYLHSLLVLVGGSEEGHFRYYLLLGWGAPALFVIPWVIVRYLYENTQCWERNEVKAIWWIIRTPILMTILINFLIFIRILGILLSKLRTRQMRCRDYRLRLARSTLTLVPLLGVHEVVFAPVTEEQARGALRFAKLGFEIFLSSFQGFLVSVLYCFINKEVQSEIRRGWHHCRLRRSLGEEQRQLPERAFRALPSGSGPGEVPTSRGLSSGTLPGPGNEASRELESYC
Summary of the method: as §1

[1] = Table 3, read-out: EC50 GLP-1R/nM
[2] = Table 3A, read-out: EC50 GLP-1R/nM
[3] = Table 3, read-out: EC50 GIP-R/nM
[4] = Table 3A, read-out: EC50 GIP-R/nM

Chain of GLP-1R (P43220 24-463): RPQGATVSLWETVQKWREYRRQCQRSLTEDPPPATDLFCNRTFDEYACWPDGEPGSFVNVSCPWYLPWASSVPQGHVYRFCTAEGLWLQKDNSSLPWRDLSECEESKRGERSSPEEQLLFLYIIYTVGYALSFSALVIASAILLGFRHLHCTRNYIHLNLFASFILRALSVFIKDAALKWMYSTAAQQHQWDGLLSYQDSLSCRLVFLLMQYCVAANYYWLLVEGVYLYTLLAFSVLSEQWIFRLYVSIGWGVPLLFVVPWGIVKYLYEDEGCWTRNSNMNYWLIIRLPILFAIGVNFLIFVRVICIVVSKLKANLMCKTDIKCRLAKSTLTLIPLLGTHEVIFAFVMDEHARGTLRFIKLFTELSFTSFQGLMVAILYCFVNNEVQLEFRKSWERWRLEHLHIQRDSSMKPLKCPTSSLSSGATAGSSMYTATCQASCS

| Structure (SMILES) | Emax (GLP-1R; Table 3) [%] | EC50 (GLP-1R; [1]) [nM] | Emax (GLP-1R; Table 3A) [%] | EC50 (GLP-1R; [2]) [nM] | Emax (GIP-R; Table 3) [%] | EC50 (GIP-R; [3]) [nM] | Emax (GIP-R; Table 3A) [%] | EC50 (GIP-R; [4]) [nM] | EC50 (GLP-1R; EC50 GLP-1R/nM, Table 3) [nM] | EC50 (GLP-1R; EC50 GLP-1R/nM, Table 3A) [nM] | EC50 (GIP-R; EC50 GIP-R/nM, Table 3) [nM] | EC50 (GIP-R; EC50 GIP-R/nM, Table 3A) [nM] |
| --- | --- | --- | --- | --- | --- | --- | --- | --- | --- | --- | --- | --- |
| CCCCCCCCCCCCCCCC(=O)N[C@@H](CCC(=O)NCCCC[C@H](NC(=O)[C@H](CO)NC(=O)[C@@H]1CCCN1C(=O)[C@@H]1CCCN1C(=O)[C@@H]1CCCN1C(=O)[C@H](C)NC(=O)CNC(=O)[C@H](CO)NC(=O)[C@H](CO)NC(=O)[C@@H]1CCCN1C(=O)CNC(=O)CNC(=O)[C@H](C)NC(=O)[C@H](CC(C)C)NC(=O)[C@H](CC(C)C)NC(=O)[C@H](Cc1c[nH]c2ccccc12)NC(=O)[C@H](CC(N)=O)NC(=O)[C@@H](NC(=O)[C@H](Cc1ccccc1)NC(=O)[C@H](CCC(=O)O)NC(=O)C(C)(C)NC(=O)[C@H](C)NC(=O)[C@H](C)NC(=O)[C@H](CCC(N)=O)NC(=O)[C@H](CCCCN)NC(=O)[C@H](CC(=O)O)NC(=O)[C@H](CC(C)C)NC(=O)[C@H](Cc1ccc(O)cc1)NC(=O)[C@@H](NC(=O)[C@H](CO)NC(=O)[C@H](Cc1ccc(O)cc1)NC(=O)[C@H](CC(=O)O)NC(=O)[C@H](CO)NC(=O)[C@@H](NC(=O)[C@H](Cc1ccccc1)NC(=O)[C@@H](NC(=O)CNC(=O)[C@H](CCC(=O)O)NC(=O)CSCC(=O)NCCN1C(=O)CNC1=O)[C@@H](C)O)[C@@H](C)O)[C@@H](C)CC)C(C)C)C(N)=O)C(=O)O [Compound 84] | 107 | 0.1 to 1 | 107 | 0.1 to 1 | 53 | 1 to 10 | 53 | 1 to 10 |  |  |  |  |
| CCCCCCCCCCCCCCCC(=O)N[C@@H](CCC(=O)NCCCC[C@H](NC(=O)[C@H](CO)NC(=O)[C@@H]1CCCN1C(=O)[C@@H]1CCCN1C(=O)[C@@H]1CCCN1C(=O)[C@H](C)NC(=O)CNC(=O)[C@H](CO)NC(=O)[C@H](CO)NC(=O)[C@@H]1CCCN1C(=O)CNC(=O)CNC(=O)[C@H](C)NC(=O)[C@H](CC(C)C)NC(=O)[C@H](CC(C)C)NC(=O)[C@H](Cc1c[nH]c2ccccc12)NC(=O)[C@H](CC(N)=O)NC(=O)[C@@H](NC(=O)[C@H](Cc1ccccc1)NC(=O)[C@H](CCC(=O)O)NC(=O)C(C)(C)NC(=O)[C@H](C)NC(=O)[C@H](C)NC(=O)[C@H](CCC(N)=O)NC(=O)[C@H](CCCCN)NC(=O)[C@H](CC(=O)O)NC(=O)[C@H](CC(C)C)NC(=O)[C@H](Cc1ccc(O)cc1)NC(=O)[C@@H](NC(=O)[C@H](CO)NC(=O)[C@H](Cc1ccc(O)cc1)NC(=O)[C@H](CC(=O)O)NC(=O)[C@H](CO)NC(=O)[C@@H](NC(=O)[C@H](Cc1ccccc1)NC(=O)[C@@H](NC(=O)CNC(=O)[C@H](CCC(=O)O)NC(=O)CSCC(=O)NCCN1C(=O)NC(C)(C)C1=O)[C@@H](C)O)[C@@H](C)O)[C@@H](C)CC)C(C)C)C(N)=O)C(=O)O [Compound 87] | 89 | 1 to 10 | 89 | 1 to 10 | 62 | 1 to 10 | 62 | 1 to 10 |  |  |  |  |
| CCCCCCCCCCCCCCCC(=O)N[C@@H](CCC(=O)NCCCC[C@H](NC(=O)[C@H](CO)NC(=O)[C@@H]1CCCN1C(=O)[C@@H]1CCCN1C(=O)[C@@H]1CCCN1C(=O)[C@H](C)NC(=O)CNC(=O)[C@H](CO)NC(=O)[C@H](CO)NC(=O)[C@@H]1CCCN1C(=O)CNC(=O)CNC(=O)[C@H](C)NC(=O)[C@H](CC(C)C)NC(=O)[C@H](CC(C)C)NC(=O)[C@H](Cc1c[nH]c2ccccc12)NC(=O)[C@H](CC(N)=O)NC(=O)[C@@H](NC(=O)[C@H](Cc1ccccc1)NC(=O)[C@H](CCC(=O)O)NC(=O)C(C)(C)NC(=O)[C@H](C)NC(=O)[C@H](C)NC(=O)[C@H](CCC(N)=O)NC(=O)[C@H](CCCCN)NC(=O)[C@H](CC(=O)O)NC(=O)[C@H](CC(C)C)NC(=O)[C@H](Cc1ccc(O)cc1)NC(=O)[C@@H](NC(=O)[C@H](CO)NC(=O)[C@H](Cc1ccc(O)cc1)NC(=O)[C@H](CC(=O)O)NC(=O)[C@H](CO)NC(=O)[C@@H](NC(=O)[C@H](Cc1ccccc1)NC(=O)[C@@H](NC(=O)CNC(=O)[C@H](CCC(=O)O)NC(=O)CSCC(=O)NCCN1C(=O)[C@H](C)C[C@H](C)C1=O)[C@@H](C)O)[C@@H](C)O)[C@@H](C)CC)C(C)C)C(N)=O)C(=O)O [Compound 88] | 108 |  | 108 |  | 102 |  | 102 |  | 1 to 10 | 1 to 10 | 1 to 10 | 1 to 10 |
| CCCCCCCCCCCCCCCC(=O)N[C@@H](CCC(=O)NCCCC[C@H](NC(=O)[C@H](CO)NC(=O)[C@@H]1CCCN1C(=O)[C@@H]1CCCN1C(=O)[C@@H]1CCCN1C(=O)[C@H](C)NC(=O)CNC(=O)[C@H](CO)NC(=O)[C@H](CO)NC(=O)[C@@H]1CCCN1C(=O)CNC(=O)CNC(=O)[C@H](C)NC(=O)[C@H](CC(C)C)NC(=O)[C@H](CC(C)C)NC(=O)[C@H](Cc1c[nH]c2ccccc12)NC(=O)[C@H](CC(N)=O)NC(=O)[C@@H](NC(=O)[C@H](Cc1ccccc1)NC(=O)[C@H](CCC(=O)O)NC(=O)C(C)(C)NC(=O)[C@H](C)NC(=O)[C@H](C)NC(=O)[C@H](CCC(N)=O)NC(=O)[C@H](CCCCN)NC(=O)[C@H](CC(=O)O)NC(=O)[C@H](CC(C)C)NC(=O)[C@H](Cc1ccc(O)cc1)NC(=O)[C@@H](NC(=O)[C@H](CO)NC(=O)[C@H](Cc1ccc(O)cc1)NC(=O)[C@H](CC(=O)O)NC(=O)[C@H](CO)NC(=O)[C@@H](NC(=O)[C@H](Cc1ccccc1)NC(=O)[C@@H](NC(=O)CNC(=O)[C@H](CCC(=O)O)NC(=O)CSCC(=O)NCCN1C(=O)C[C@@H](C)C1=O)[C@@H](C)O)[C@@H](C)O)[C@@H](C)CC)C(C)C)C(N)=O)C(=O)O [Compound 89] | 108 |  | 108 |  | 81 |  | 81 |  | 1 to 10 | 1 to 10 | 0.1 to 1 | 0.1 to 1 |
| CCCCCCCCCCCCCCCC(=O)N[C@@H](CCC(=O)NCCCC[C@H](NC(=O)[C@H](CO)NC(=O)[C@@H]1CCCN1C(=O)[C@@H]1CCCN1C(=O)[C@@H]1CCCN1C(=O)[C@H](C)NC(=O)CNC(=O)[C@H](CO)NC(=O)[C@H](CO)NC(=O)[C@@H]1CCCN1C(=O)CNC(=O)CNC(=O)[C@H](C)NC(=O)[C@H](CC(C)C)NC(=O)[C@H](CC(C)C)NC(=O)[C@H](Cc1c[nH]c2ccccc12)NC(=O)[C@H](CC(N)=O)NC(=O)[C@@H](NC(=O)[C@H](Cc1ccccc1)NC(=O)[C@H](CCC(=O)O)NC(=O)C(C)(C)NC(=O)[C@H](C)NC(=O)[C@H](C)NC(=O)[C@H](CCC(N)=O)NC(=O)[C@H](CCCCN)NC(=O)[C@H](CC(=O)O)NC(=O)[C@H](CC(C)C)NC(=O)[C@H](Cc1ccc(O)cc1)NC(=O)[C@@H](NC(=O)[C@H](CO)NC(=O)[C@H](Cc1ccc(O)cc1)NC(=O)[C@H](CC(=O)O)NC(=O)[C@H](CO)NC(=O)[C@@H](NC(=O)[C@H](Cc1ccccc1)NC(=O)[C@@H](NC(=O)CNC(=O)[C@H](CCC(=O)O)NC(=O)CSCC(=O)NCCN1C(=O)C2=C(CCCC2)C1=O)[C@@H](C)O)[C@@H](C)O)[C@@H](C)CC)C(C)C)C(N)=O)C(=O)O [Compound 100] | 95 |  | 95 |  | 100 |  | 100 |  | 10 to 100 | 10 to 100 | 1 to 10 | 1 to 10 |
| CCCCCCCCCCCCCCCC(=O)N[C@@H](CCC(=O)NCCCC[C@H](NC(=O)[C@H](CO)NC(=O)[C@@H]1CCCN1C(=O)[C@@H]1CCCN1C(=O)[C@@H]1CCCN1C(=O)[C@H](C)NC(=O)CNC(=O)[C@H](CO)NC(=O)[C@H](CO)NC(=O)[C@@H]1CCCN1C(=O)CNC(=O)CNC(=O)[C@H](C)NC(=O)[C@H](CC(C)C)NC(=O)[C@H](CC(C)C)NC(=O)[C@H](Cc1c[nH]c2ccccc12)NC(=O)[C@H](CC(N)=O)NC(=O)[C@@H](NC(=O)[C@H](Cc1ccccc1)NC(=O)[C@H](CCC(=O)O)NC(=O)C(C)(C)NC(=O)[C@H](C)NC(=O)[C@H](C)NC(=O)[C@H](CCC(N)=O)NC(=O)[C@H](CCCCN)NC(=O)[C@H](CC(=O)O)NC(=O)[C@H](CC(C)C)NC(=O)[C@H](Cc1ccc(O)cc1)NC(=O)[C@@H](NC(=O)[C@H](CO)NC(=O)[C@H](Cc1ccc(O)cc1)NC(=O)[C@H](CC(=O)O)NC(=O)[C@H](CO)NC(=O)[C@@H](NC(=O)[C@H](Cc1ccccc1)NC(=O)[C@@H](NC(=O)CNC(=O)[C@H](CCC(=O)O)NC(=O)CSCC(=O)NCCN1C(=O)CC2(CCCC2)C1=O)[C@@H](C)O)[C@@H](C)O)[C@@H](C)CC)C(C)C)C(N)=O)C(=O)O [Compound 102] | 104 |  | 104 |  | 34 |  | 34 |  | 1 to 10 | 1 to 10 | 10 to 100 | 10 to 100 |
